Assay results published in US10316038B2, “Pyrrolopyrimidine ITK inhibitors for treating inflammation and cancer” (ACLARIS THERAPEUTICS, INC., priority 2017, dated 2019).

Experiments:
[1] = molecular target: T1, ITK (Homo sapiens, UniProt Q08881); assay: ITK inhibitor binding potency (LanthaScreen competitive binding assay); conditions: TR-FRET competitive binding, 10 nM ITK, 50 nM kinase tracer-236; pre-incubation condition not given; read-out: ITK Inhibition IC50
T1 sequence (Q08881 1-620): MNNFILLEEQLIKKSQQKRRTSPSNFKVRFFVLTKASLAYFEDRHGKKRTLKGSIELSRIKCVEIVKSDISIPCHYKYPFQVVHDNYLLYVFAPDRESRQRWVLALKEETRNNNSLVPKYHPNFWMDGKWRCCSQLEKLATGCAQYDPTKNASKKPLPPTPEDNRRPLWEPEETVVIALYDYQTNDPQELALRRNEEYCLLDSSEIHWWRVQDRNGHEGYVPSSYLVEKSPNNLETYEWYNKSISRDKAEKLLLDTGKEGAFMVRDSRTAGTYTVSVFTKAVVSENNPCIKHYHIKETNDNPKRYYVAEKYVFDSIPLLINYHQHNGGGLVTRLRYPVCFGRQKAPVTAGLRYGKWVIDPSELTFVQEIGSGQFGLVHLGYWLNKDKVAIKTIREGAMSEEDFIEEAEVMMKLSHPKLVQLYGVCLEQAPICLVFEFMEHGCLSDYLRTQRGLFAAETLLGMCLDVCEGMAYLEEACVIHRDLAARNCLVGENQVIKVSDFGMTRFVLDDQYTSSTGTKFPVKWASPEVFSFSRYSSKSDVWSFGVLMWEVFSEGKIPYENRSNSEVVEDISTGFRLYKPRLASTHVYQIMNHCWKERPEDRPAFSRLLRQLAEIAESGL
Description: The ability of candidate compounds to interact with ITK is quantitated by a competitive binding assay using the LanthaScreen technology developed by Life Technologies. This assay is based on the binding of a proprietary, Alexa Fluor™ 647-labeled, ATP-competitive kinase inhibitor (kinase tracer-236) to the ITK expression construct in the presence of a Europium-conjugated antibody, resulting in a FRET (fluorescence resonance energy transfer) signal. Displacement of the kinase tracer by compound results in a lower emission ratio upon excitation of the Europium chelate. Candidate compounds are designed as potential irreversible inhibitors of ITK, capable of ligating to an active site cysteine residue resulting in time dependent covalent binding. The time dependent nature of irreversible inhibition is investigated by performing the binding assay with and without a pre-incubation of compound and ITK. […] The inhibitory potency of candidate compounds is measured in 20 mM HEPES pH 7.5, 10 mM MgCl2, 0.01% BSA, 0.0005% Tween-20, and 2% DMSO in the presence of 10 nM ITK, 2 nM Eu-anti-GST antibody, and 50 nM kinase tracer-236 using a 384-well plate format. Background signal is defined in the absence of ITK and uninhibited signal is defined in the presence of vehicle (2% DMSO) alone. Compounds were evaluated in an 11 point dose-response ranging from 20 uM to 0.34 nM. The binding assays are performed under two preincubation conditions to evaluate time dependence of inhibition. For the pre-incubation assay, ITK and Eu-anti-GST antibody are pre-incubated with compound or vehicle for two hours prior to the addition of kinase tracer. The non-preincubated assay is run under conditions where ITK and Eu-anti-GST antibody are added to a mixture of compound and kinase tracer. IC50 values of compounds are determined using a 4 parameter logistical fit of emission ratio as a function of the concentration of compound.

[2] = system: ITK phosphorylation of its substrate, PLCγ1, at Y783; assay: ITK target modulation assay (phospho-Y783 PLCγ1 immunoblot in Jurkat T cells); assay type: cell-based; conditions: Homo sapiens, Jurkat, 2 h, 2 hours compound, CD3/CD28 Dynabeads stimulation 100 sec, anti-phospho-Y783 PLCγ1 immunoblot, read-out: PLC-γ Inhibition IC50
Protocol: Target modulation was based upon the ability of a compound to inhibit ITK phosphorylation of its substrate, PLCγ1, at […]. Human Jurkat T cells were placed in snap-cap polypropylene tubes at 4 million per tube in 800 μL medium (RPMI1640 with 10% heat inactivated serum and […] 2-mercaptoethanol and supplemented with glutamine/penicillin/streptomycin). Compounds were added as 100 μL of 10× working stock solutions in medium with 1% DMSO (or medium with 1% DMSO for controls) and placed in a 37° C. incubator for 2 hours. Stimulation was carried out using CD3/CD28 Dynabeads to activate the T cell receptor and mimic antigen presenting cells. Beads were added for 100 sec at a ratio of 1 bead per cell, in 100 μL medium (or medium alone for unstimulated control). Starting at 70 sec, cells and beads were pelleted in a microfuge for 15 sec, the supernatant aspirated, and 50 μL lysis buffer was added per tube and mixed with the pellet at the 100 sec time point. Tubes were placed on a rotator for 30 min at 4° C., and cell debris was pelleted in a microfuge. Supernatant was mixed 1:1 with 2× Sample Buffer and subjected to SDS-polyacrylamide gel electrophoresis. After transfer to nitrocellulose, immunoblotting was done with anti-phospho-[…] PLCγ1 antibody. Immunoblots were visualized with ECL using horseradish peroxidase conjugated secondary antibody.

Structure (SMILES)	IC50 [1] [nM]	IC50 [2] [nM]
CN(C)C/C=C/C(=O)Nc1cc(-c2cnc3[nH]cc(-c4cccc(C#N)c4)c3c2)cc(C(F)(F)F)c1 [Example 1, (E)-N-(3-(3-(3-Cyanophenyl)-1H-pyrrolo[2,3-b]pyridin-5-yl)-5-(trifluoromethyl)phenyl)-4-(dimethylamino)but-2-enamide]	≤ 100	≤ 1000
C=CC(=O)N(C)c1cccc(-c2cnc3[nH]cc(-c4ccnc(OC)c4)c3c2)c1 [Example 2, N-(3-(3-(2-Methoxypyridin-4-yl)-1H-pyrrolo[2,3-b]pyridin-5-yl)phenyl)-N-methylacrylamide]	≤ 100	1000 to 5000
C=CC(=O)Nc1cc(-c2cnc3[nH]cc(-c4ccnc(NC)n4)c3c2)cc(C(F)(F)F)c1 [Example 3, N-(3-(3-(2-(Methylamino)pyrimidin-4-yl)-1H-pyrrolo[2,3-b]pyridin-5-yl)-5-(trifluoromethyl)phenyl)acrylamide]	≤ 100	≤ 1000
CN(C)C/C=C/C(=O)Nc1cncc(-c2cnc3[nH]cc(-c4ccnc(C#N)c4)c3c2)c1 [Example 4, (E)-N-(5-(3-(2-Cyanopyridin-4-yl)-1H-pyrrolo[2,3-b]pyridin-5-yl)pyridin-3-yl)-4-(dimethylamino)but-2-enamide]	≤ 100	≤ 1000
C=CC(=O)Nc1cc(-c2cnc3[nH]cc(-c4cccc(C#N)c4)c3c2)cnc1OC1CCOC1 (stereo not shown) [Example 5, N-(5-(3-(3-Cyanophenyl)-1H-pyrrolo[2,3-b]pyridin-5-yl)-2-((tetrahydrofuran-3-yl)oxy)pyridin-3-yl)acrylamide]	≤ 100	1000 to 5000
CN(C)C/C=C/C(=O)Nc1cccc(-c2cnc3[nH]cc(-c4cn(C)c(=O)c5[nH]ccc45)c3c2)c1 [Example 6, (E)-4-(dimethyl-amino)-N-(3-(3-(6-methyl-7-oxo-6,7-dihydro-1H-pyrrolo[2,3-c]-pyridin-4-yl)-1H-pyrrolo[2,3-b]-pyridin-5-yl)-phenyl)but-2-enamide]	≤ 100	> 5000
C=CC(=O)Nc1cccc(-c2cnc3[nH]cc(-c4cncc(C(N)=O)c4)c3c2)c1 [Example 9, 5-(5-(3-acryl-amidophenyl)-1H-pyrrolo[2,3-b]-pyridin-3-yl)-nicotinamide]	≤ 100	> 5000
CN(C)C/C=C/C(=O)Nc1cccc(-c2cnc3[nH]cc(-c4cncc(C(N)=O)c4)c3c2)c1 [Example 10, (E)-5-(5-(3-(4-(dimethylamino)-but-2-enamido)-phenyl)-1H-pyrrolo[2,3-b]-pyridin-3-yl)-nicotinamide]	≤ 100	> 5000
CN(C)C/C=C/C(=O)Nc1cccc(-c2cnc3[nH]cc(-c4cncc(C#N)c4)c3c2)c1 [Example 11, (E)-N-(3-(3-(5-cyanopyridin-3-yl)-1H-pyrrolo-[2,3-b]pyridin-5-yl)phenyl)-4-(dimethylamino)-but-2-enamide]	≤ 100	> 5000
Cc1cc2c(-c3c[nH]c4ncc(-c5cc(NC(=O)/C=C/CN(C)C)cc(C(F)(F)F)c5)cc34)ccnc2[nH]1 [Example 14, (E)-4-(dimethyl-amino)-N-(3-(2′-methyl-1H,1′H-[3,4′-bipyrrolo-[2,3-b]pyridin]-5-yl)-5-(trifluoro-methyl)phenyl)-but-2-enamide]	≤ 100	≤ 1000
C=CC(=O)Nc1cc(OC)cc(-c2cnc3[nH]cc(-c4ccnc5[nH]ccc45)c3c2)c1 [Example 15, N-(3-(1H,1′H-[3,4′-bipyrrolo-[2,3-b]pyridin]-5-yl)-5-methoxy-phenyl)acrylamide]	≤ 100	≤ 1000
C=CC(=O)Nc1cncc(-c2cnc3[nH]cc(-c4ccnc(OC)c4)c3c2)c1 [Example 17, N-(5-(3-(2-methoxypyridin-4-yl)-1H-pyrrolo-[2,3-b]pyridin-5-yl)pyridin-3-yl)-acrylamide]	≤ 100	≤ 1000
COc1cc(-c2c[nH]c3ncc(-c4cncc(N(C)C(=O)/C=C/CN(C)C)c4)cc23)ccn1 [Example 73, (E)-4-(dimethyl-amino)-N-(5-(3-(2-methoxypyridin-4-yl)-1H-pyrrolo-[2,3-b]pyridin-5-yl)pyridin-3-yl)-N-methylbut-2-enamide]		≤ 1000
CN(C)C/C=C/C(=O)N(C)c1cncc(-c2cnc3[nH]cc(-c4ccnc(F)c4)c3c2)c1 [Example 74, (E)-4-(dimethyl-amino)-N-(5-(3-(2-fluoropyridin-4-yl)-1H-pyrrolo-[2,3-b]pyridin-5-yl)pyridin-3-yl)-N-methylbut-2-enamide]		≤ 1000

The next lines start with the values.

IC50 [1] [nM]	IC50 [2] [nM]	Structure (SMILES)
≤ 1000	≤ 1000	C=CC(=O)Nc1cc(-c2cnc3[nH]cc(-c4cccc(C#N)c4)c3c2)cc(C(F)(F)F)c1 [Example 7, N-(3-(3-(3-cyano-phenyl)-1H-pyrrolo[2,3-b]-pyridin-5-yl)-5-(trifluoromethyl)-phenyl)acrylamide]
≤ 100	1000 to 5000	C=CC(=O)Nc1cccc(-c2cnc3[nH]cc(-c4cncc(C#N)c4)c3c2)c1 [Example 8, N-(3-(3-(5-cyano-pyridin-3-yl)-1H-pyrrolo[2,3-b]-pyridin-5-yl)-phenyl)acrylamide]
≤ 100	≤ 1000	C=CC(=O)Nc1cc(-c2cnc3[nH]cc(-c4cncc(C#N)c4)c3c2)cc(C(F)(F)F)c1 [Example 12, N-(3-(3-(5-cyano-pyridin-3-yl)-1H-pyrrolo[2,3-b]-pyridin-5-yl)-5-(trifluoromethyl)-phenyl)acrylamide]
≤ 100	≤ 1000	C=CC(=O)Nc1cc(OC)cc(-c2cnc3[nH]cc(-c4cccc(C#N)c4)c3c2)c1 [Example 16, N-(3-(3-(3-cyano-phenyl)-1H-pyrrolo[2,3-b]-pyridin-5-yl)-5-methoxyphenyl)-acrylamide]
≤ 100	≤ 1000	C=CC(=O)Nc1cc(-c2cnc3[nH]cc(-c4cccc(C#N)c4)c3c2)cc(-c2cnn(C)c2)c1 [Example 18, N-(3-(3-(3-cyano-phenyl)-1H-pyrrolo[2,3-b]-pyridin-5-yl)-5-(1-methyl-1H-pyrazol-4-yl)-phenyl)acrylamide]
≤ 100	≤ 1000	COc1cc(NC(=O)/C=C/CN(C)C)cc(-c2cnc3[nH]cc(-c4cccc(C#N)c4)c3c2)c1 [Example 19, (E)-N-(3-(3-(3-cyanophenyl)-1H-pyrrolo[2,3-b]-pyridin-5-yl)-5-methoxyphenyl)-4-(dimethyl-amino)but-2-enamide]
	1000 to 5000	C=CC(=O)Nc1cc(C)cc(-c2cnc3[nH]cc(-c4cccc(C#N)c4)c3c2)c1 [Example 75, N-(3-(3-(3-cyano-phenyl)-1H-pyrrolo[2,3-b]-pyridin-5-yl)-5-methylphenyl)-acrylamide]
	1000 to 5000	Cc1cc(NC(=O)/C=C/CN(C)C)cc(-c2cnc3[nH]cc(-c4cccc(C#N)c4)c3c2)c1 [Example 76, (E)-N-(3-(3-(3-cyanophenyl)-1H-pyrrolo[2,3-b]-pyridin-5-yl)-5-methylphenyl)-4-(dimethyl-amino)but-2-enamide]
